Reference: ChEMBL document CHEMBL1133282, “Synthesis and preliminary biological evaluation of 4,6-disubstituted 3-cyanopyridin-2(1H)-ones, a new class of calcium entry blockers” (Bioorg Med Chem Lett, 2000)

Experiments:
Assay type in all cases: functional
[1] = organism: Rattus norvegicus; experiment: Tested in vitro on K+ -depolarized rat aorta strips to evaluate its ability to relax the initial contraction induced by K
[2] = organism: Rattus norvegicus; experiment: Vasorelaxing activity expressed as maximum smooth muscle relaxation at 1*10e-4 M
[3] = organism: Rattus norvegicus; experiment: Vasorelaxing activity expressed as maximum smooth muscle relaxation at 1*10e-5 M

Row | SMILES | IC50 [1] [nM] | Max relaxation [2] [%] | Max relaxation [3] [%]
1 | Cc1ccccc1-c1cc(-c2ccccc2O)nc(O)c1C#N | 1000 | 89.17 | –
2 | COc1ccc(OC)c(-c2cc(-c3ccccc3O)nc(O)c2C#N)c1 | 1.1 | – | 95.51
3 | N#Cc1c(-c2ccccc2Cl)cc(-c2ccccc2O)nc1O | 30 | 79.78 | –
4 | COc1ccc(-c2cc(-c3ccccc3O)nc(O)c2C#N)c(OC)c1 | 380 | 40 | –
5 | N#Cc1c(-c2ccccc2)cc(-c2ccccc2O)[nH]c1=O | 0.95 | 23.86 | –
6 | N#Cc1c(-c2ccccc2Br)cc(-c2ccccc2O)nc1O | 17000 | 35.29 | –
7 | COc1ccccc1-c1cc(-c2ccccc2O)nc(O)c1C#N | 12 | 99.54 | –
8 | N#Cc1c(-c2cccc([N+](=O)[O-])c2)cc(-c2ccccc2O)nc1O | 500 | 64 | –
9 | COc1ccc([C@@H]2Sc3ccccc3N(CCN(C)C)C(=O)[C@@H]2OC(C)=O)cc1 [DILTIAZEM] | 48 | 97.86 | –
